In experiment [1] the test system is 5-hydroxytryptamine or histamine induced bronchoconstriction. Kind of experiment: Konzett-Rossler preparation: inhibition of 5-hydroxytryptamine or histamine induced bronchoconstriction, anaesthetised artificially respired guinea pig. In kind it is in vivo. To be noted: Cavia porcellus, iv. The protocol:
1. The compounds were examined for their ability to inhibit 5-hydroxytryptamine or histamine induced bronchoconstriction in the anaesthetised, artificially respired guinea pig (Konzett-Rossler preparation). The compounds were administered intravenously.

Experiment [2] relates to bronchoconstriction induced by an histamine aerosol. Kind of experiment: Herxheimer test: protection of conscious guinea pigs against histamine aerosol induced bronchoconstriction. In kind it is in vivo, guinea pig. The settings on record: at 10 μg/ml after two minutes, mean of several experiments. The method, then: 2. The compounds were also examined for their ability to protect conscious guinea pigs against bronchoconstriction induced by an histamine aerosol (Herxheimer test). In these experiments the compounds were administered by aerosol. The results are the mean of several experiments.

Results on three molecules are retold here after patent US4294972A, “1,2-Disubstituted oxo triazolidine” (Beecham Group Limited, priority 1978, dated 1981).

The term ED50 denotes the midpoint of the dose-response relation. Read a low ED50 as greater potency. On to `CCCCCC(O)CCn1c(=O)n(C)c(=O)n1CCCCCCCC(C)=O` (stereo not drawn) [Compound 8], for which the ED50 in experiment [1] is 6.9 µg/kg. Also, the “Herxheimer % increase in preconvulsive coughing time” value (from here on “Herxheimer % increase”) in experiment [2] is 31%.

`CCCCCCC(C)(O)CCn1c(=O)n(C)c(=O)n1CCCCCCCC(C)=O` (stereo not drawn) [Compound 1, 1-(8-oxononyl)-2-(3"-hydroxy-3"-methylnonyl)-4-methyl-1,2,4-triazolidine-3,5-dione] returned a median effective dose (ED50) in experiment [1] of 2.7 µg/kg. Moreover, the “Herxheimer % increase” value in experiment [2] is recorded as “Active”.

In experiment [1], `CCCCCCC(C)(O)CCn1c(=O)n(C)c(=S)n1CCCCCCCC(C)=O` (stereo not drawn) [Compound 9] returned an ED50 of 26.5 µg/kg. Further, the “Herxheimer % increase” value in experiment [2] is given as 52%.
